One block for each molecule: values may come before it. Square brackets hold non-standard residues; d marks the D form. Peptide text beside a SMILES is read from it. pGlu = O=C1CC[C@@H](C(=O)O)N1
Experiments:
[1] = target: T1, Substance-P receptor (Cavia porcellus, UniProt P30547); assay: Evaluated for the binding affinity towards NK1 receptor in the striatal membranes of guinea pig; type: cell membranes, Striatum, Membrane
[2] = target: T1, Substance-P receptor; assay: Evaluated for the binding affinity against NK1 receptor
[3] = target: Substance-P receptor (Cavia porcellus) (UniProt P30547); assay: Evaluated for the binding affinity against NK1 receptor
Target sequence in this assay (P30547 whole entry, looked up): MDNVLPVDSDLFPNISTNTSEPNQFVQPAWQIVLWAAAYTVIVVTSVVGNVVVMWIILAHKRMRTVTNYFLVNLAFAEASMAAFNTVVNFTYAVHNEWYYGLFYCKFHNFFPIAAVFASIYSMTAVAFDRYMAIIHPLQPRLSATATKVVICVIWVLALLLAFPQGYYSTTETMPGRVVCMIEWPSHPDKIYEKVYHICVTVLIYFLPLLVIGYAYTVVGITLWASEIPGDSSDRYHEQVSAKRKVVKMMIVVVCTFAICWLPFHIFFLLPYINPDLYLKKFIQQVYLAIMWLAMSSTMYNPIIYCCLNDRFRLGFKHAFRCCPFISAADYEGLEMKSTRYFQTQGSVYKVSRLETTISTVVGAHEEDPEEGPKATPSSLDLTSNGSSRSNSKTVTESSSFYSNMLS

[4] = target: Substance-P receptor (Cavia porcellus) (UniProt P30547); assay: Evaluated for the binding affinity against NK1 receptor at 1 uM
Target sequence in this assay (P30547 whole entry, looked up): as above

[5] = target: Substance-P receptor (Cavia porcellus) (UniProt P30547); details: Striatum, Membrane, 10 uM
Target sequence in this assay (P30547 whole entry): as the sequence (P30547 whole entry, looked up) above
Description: Evaluated for the binding affinity towards NK1 receptor in the striatal membranes of guinea pig at 10 uM

T1 sequence (P30547 whole entry): as the sequence (P30547 whole entry, looked up) above

Kd [1]: 0.32 nM
SMILES: [3H]c1cc([3H])cc([C@@H]2NCCC[C@@H]2NCc2ccccc2OC)c1

Ki [2]: 20 nM
SMILES: CC(C)C[C@H](NC(=O)CN(C)C(=O)[C@H](Cc1ccccc1)NC(=O)[C@H](Cc1ccccc1)NC(=O)[C@H](CCC(N)=O)NC(=O)[C@H](CCC(N)=O)NC(=O)[C@@H]1CCCN1C(=O)[C@H](CCCCN)NC(=O)[C@@H]1CCCN1C(=O)[C@@H](N)CCCNC(=N)N)C(=O)N[C@@H](CCS(C)(=O)=O)C(N)=O

Ki [3]: 3700 nM
SMILES: CSCC[C@H](NC(=O)[C@H](CC(C)C)NC(=O)CNC(=O)[C@@H](NC(=O)[C@H](Cc1ccccc1)NC(=O)[C@H](CO)NC(=O)[C@H](CC(=O)O)NC(=O)[C@@H](NC(=O)[C@H](CCCCN)NC(=O)[C@@H](N)Cc1cnc[nH]1)[C@@H](C)O)C(C)C)C(N)=O [NEUROKININ A]

inhibition [4]: 15%
SMILES: CC[C@H](C)[C@H](NC(=O)[C@H](Cc1ccccc1)NC(=O)[C@H](C)NC(=O)[C@H](CC(=O)O)NC(=O)[C@H](CCCCN)NC(=O)[C@H](CO)NC(=O)[C@@H]1CCCN1C(=O)[C@@H]1CCC(=O)N1)C(=O)NCC(=O)N[C@@H](CC(C)C)C(=O)N[C@@H](CCSC)C(N)=O ([pGlu]PSKDAFIGLM-NH2)

The next lines start with the molecule.

SMILES: COc1ccccc1CN[C@H]1CCCN[C@H]1c1ccccc1 (stereo in doubt; 6b) [CP-99994]
Ki [1]: 0.27 nM

SMILES: COc1ccccc1CN[C@@H]1CCCN[C@@H]1c1ccccc1
inhibition [5]: 50%

SMILES: COc1ccccc1CN[C@H]1CCCN[C@H]1c1ccccc1 (stereo in doubt; 5) [CP-99994]
Ki [1]: 0.17 nM

From ChEMBL document CHEMBL1126863 (J Med Chem, 1993)
